# Measurements from paper PMC6193536 (Bioorganic & medicinal chemistry letters, 2018).
# Read-outs that look alike come from different tables or passages of the source.
# Key:
# PfPKG [1] = target: T1, PfPKG (Plasmodium falciparum, UniProt Q8I719); details: data unpublished
# Plasmodium falciparum [2] = test: hypoxanthine incorporation assay; format: cell-based
# Plasmodium falciparum [3] = details: cited from earlier work
# PfPKG [4] = target: T1, PfPKG; details: cited from earlier work
# T1 sequence (Q8I719 whole entry): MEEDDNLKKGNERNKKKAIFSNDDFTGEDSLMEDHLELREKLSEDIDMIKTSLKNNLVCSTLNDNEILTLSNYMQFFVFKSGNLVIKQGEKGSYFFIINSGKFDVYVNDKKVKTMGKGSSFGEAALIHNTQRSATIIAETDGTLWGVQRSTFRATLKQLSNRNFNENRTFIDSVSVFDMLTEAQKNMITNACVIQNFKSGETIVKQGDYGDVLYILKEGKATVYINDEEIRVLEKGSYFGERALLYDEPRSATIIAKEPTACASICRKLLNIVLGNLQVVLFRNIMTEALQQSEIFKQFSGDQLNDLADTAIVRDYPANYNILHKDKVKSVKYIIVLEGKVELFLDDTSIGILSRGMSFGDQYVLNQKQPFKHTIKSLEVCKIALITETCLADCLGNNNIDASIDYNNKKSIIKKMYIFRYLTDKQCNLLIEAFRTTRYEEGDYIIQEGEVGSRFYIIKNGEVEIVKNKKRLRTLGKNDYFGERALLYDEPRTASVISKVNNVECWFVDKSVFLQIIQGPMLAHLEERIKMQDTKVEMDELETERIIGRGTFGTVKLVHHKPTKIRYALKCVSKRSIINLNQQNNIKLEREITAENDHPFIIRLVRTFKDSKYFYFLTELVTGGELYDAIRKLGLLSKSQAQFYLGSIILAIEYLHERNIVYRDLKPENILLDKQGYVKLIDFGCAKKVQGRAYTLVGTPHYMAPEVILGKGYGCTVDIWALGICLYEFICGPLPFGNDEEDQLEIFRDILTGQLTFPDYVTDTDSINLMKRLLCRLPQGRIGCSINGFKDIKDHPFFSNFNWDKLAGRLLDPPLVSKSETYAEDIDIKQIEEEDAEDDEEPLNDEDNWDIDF
structure (smiles),measurement,setting,value
CN1CCC(c2cc(-c3ccncc3)c(-c3ccc(F)cc3)[nH]2)CC1 [compound 1],potency in biochemical assay against PfPKG,PfPKG [1],low nanomolar potencies
same,potency in HXI cell viability assay,Plasmodium falciparum [2]; data unpublished,moderate potency
same,kinase selectivity (other human kinases),panel of human kinases,poor kinase selectivity
CN1CCC(c2nc(-c3ccc(F)c(NS(C)(=O)=O)c3)c(-c3ccnc(NCC4CC4)n3)s2)CC1 [compound 23],improvement in cellular potency over compound 1,Plasmodium falciparum [2]; versus compound 1,4 fold
CN(C)Cc1ccn2c(-c3ccnc(N)n3)c(-c3ccc(F)cc3)nc2c1 [compound 2],potency in HXI cell viability assay,Plasmodium falciparum [3],moderate potency
same,potency in biochemical assay against PfPKG,PfPKG [4],low nanomolar potencies
